The source of these data is patent US6541513B2, “Carbamate compounds for use in preventing or treating psychotic disorders” (Ortho-McNeil Pharmaceutical, Inc., priority 2001, dated 2003).

Assay [1] concerns DOI-induced headshakes in male NIH Swiss mice. The assay can be described thus: DOI-Induced Headshake Model. It counts as in vivo. To be noted: for % Inhibition (% Inh.) of DOI-induced headshakes: 45 min before DOI 5 mg/kg ip, percent suppression compared to vehicle group; for maximal suppression of DOI-induced headshakes: at the 100 mg/kg dose, oral, DOI 5 mg/kg ip. Here is the method:
DOI-Induced Headshake Model
The administration of DOI to rodents has been used as a model for assessing potential efficacy of an atypical antipsychotic in treating psychosis and schizophrenia in certain patient populations with direct or indirect defects in the serotonin system.
Male NIH Swiss mice weighing 18-21 grams at the time of purchase were obtained from Harlan Sprague Dawley, Inc. (Prattville, Ala.). They were individually housed in wire-mesh cages at an ambient temperature of 21 to 23° C. with an automated 12/12 hour light/dark cycle. All […] had free access to 5001 Rodent Chow (Purina Mills, Brentwood, Mo.) and water except during experimental sessions. The principles of laboratory animal care (NIH publication No. 85-23, revised 1985) were followed.
DOI (purchased from Sigma, St. Louis, Mo.) was dissolved in saline, neutralized to pH ˜7.4 and injected ip in a volume of 10 ml/kg body weight. Injection solution was freshly prepared 30-45 minutes before each experiment. Methylcellulose (0.5%, Sigma) was used as oral dosing vehicle. All experiments were performed between 10 am and 4 pm during the day. The mice were fasted the evening before the experiment.
An enantiomer of Formula (Ib), Formula (IIb) or vehicle was orally administered at various concentrations ranging from 10 μg to 100 mg/kg. The animals were then injected with either saline or DOI (ip, 5 mg/kg) 45 minutes after the administration of either vehicle or an enantiomer of Formula (Ib) or Formula (IIb). Immediately upon DOI administration, the mice were placed in isolated observation cylinders made of a clear polycarbonate (27 cm in diameter and 55 cm deep). The number of randomized headshakes (or twitches) was recorded by an experienced observer using a hand held mechanical counter. Headshake responses were counted in consecutive 10-min periods.
DOI-Induced Headshake Model Analysis
All data are expressed as the mean ±SEM. The average of the headshakes in the vehicle group was expressed as 100%. The DOI-induced headshakes in groups treated with an enantiomer of Formula (Ib) and Formula (IIb) were expressed as percent suppression compared to the vehicle group. Statistical analysis for significant differences was done with the Student t test.

In assay [2] the test system is PPI-disruptive effects of PCP in Sprague-Dawley-derived male rats. Description: Pre-Pulse Inhibition Model (PCP-disrupted PPI). Type of assay: in vivo. An excerpt: Pre-Pulse Inhibition Model
The restorative effect of an enantiomer of Formula (Ib) on Pre-Pulse Inhibition (PPI) was compared to the disruptive PPI effect of phencyclidine (PCP). PCP is a NMDA antagonist having a wide range of psychotominetic effects in humans. The PPI disruption caused by PCP can be restored by some atypical antipsychotics, such as clozapine, olanzapine, and quetiapine.
Sprague-Dawley-derived male rats were housed in groups of two or three and maintained in a temperature-controlled environment on a 12 h:12 h light cycle. Except during behavioral testing, animals were given free access to food and water. Animals were handled daily for several days to desensitize them to handling stress before behavioral analysis.
An SR-LAB Startle System was used to control auditory stimuli and background noise level and to monitor startle response (±one msec). The average amplitude of the response was the main dependent variable used. Animals (n=20) were grouped according to a baseline mean PPI determined in a brief matching session. Baseline mean PPI testing consisted of 12 noise bursts at 118 dB[A] over a 40 msec time period followed by 3 noise bursts at 12 dB[A] over a 40 msec time period two days before testing with drug. […]
Data were collected online simultaneously from multiple startle chambers and analyzed using the Statview 5.0 statistical package.

Molecules are shown by their SMILES.

As to `NC(=O)OC[C@H](OC(N)=O)c1ccccc1Cl` [Formula (IIb)], the “% Inhibition (% Inh.) of DOI-induced headshakes” value in assay [1] (0.01 mg/Kg oral) is 1%; in assay [1] (0.1 mg/Kg oral), 11%; in assay [1] (1 mg/Kg oral) it was 4%; in assay [1] (10 mg/Kg oral) it was 41%; in assay [1] (30 mg/Kg oral), 36%; in assay [1] (100 mg/Kg oral) it was 43%. In addition, the “maximal suppression of DOI-induced headshakes” value in assay [1] came to 43%.
For the molecule `NC(=O)OC[C@@H](O)c1ccccc1Cl` [Formula (Ib)], the “% Inhibition (% Inh.) of DOI-induced headshakes” value is reported as 11% in assay [1] (0.01 mg/Kg oral); 20% in assay [1] (0.1 mg/Kg oral); 41% in assay [1] (1 mg/Kg oral); 63% in assay [1] (10 mg/Kg oral); 58% in assay [1] (30 mg/Kg oral); 76% in assay [1] (100 mg/Kg oral). Also, in assay [1], the “maximal suppression of DOI-induced headshakes” value is listed as 76%. For the same molecule, in assay [2] (5, 15 and 45 mg/kg p.o.), the “dose-dependent reduction in startle magnitude” value is on record as “lacked an orderly dose-dependent reduction in startle magnitude”. Further, the “block of the PPI-disruptive effects of PCP” value in assay [2] (acute treatment 5, 15 and 45 mg/kg p.o., 110 min before PCP 1.5 mg/kg s.c.) is on record as “failed to significantly block the PPI-disruptive effects of PCP”.
